How the values were obtained:
Assay in all cases: Microbial challenge testing in BPW
Assay type in all cases: cell-based
Aeromonas sp. = system: Aeromonas sp.
Summary of the method: (§1)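 Bacteria, including ATCC and wild-type isolates from chemical products, were grown in tryptose soy broth with 1% dextrose for at least 96 hours. Inoculum was sized by plate count and turbidity (NTU) and added to test-material substrates to give 10^5 to 10^6 cfu/mL initially. Incubation ran 14 days at 35° C., then at room temperature.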

Bacillus subtilis = system: Bacillus subtilis
Summary of the method: as §1

Escherichia coli = system: Escherichia coli
Summary of the method: as §1

Proteus vulgaris = system: Proteus vulgaris
Summary of the method: as §1

Pseudomonas aeruginosa = system: Pseudomonas aeruginosa
Summary of the method: as §1

Staphylococcus aureus = system: Staphylococcus aureus
Summary of the method: as §1

[1] = system: Staphylococcus epidermidis
Summary of the method: as §1

Streptococcus mutans = system: Streptococcus mutans
Summary of the method: as §1

Compound: CC1(C)C(O)C(C)(C)C1O (stereo not drawn) [TMCD, 2,2,4,4-tetramethyl-1,3-cyclobutanediol]
- Grade code Aeromonas sp (Aeromonas sp.; 0.5%, 3 days incubation): 5 (More than 10,000 colonies estimated (thus >100,000 cfu/mL))
- Grade code Aeromonas sp (Aeromonas sp.; 0.5%, 14 days incubation): 4 (1001 to 10,000 colonies (thus 10,000 cfu/mL to 100,000 cfu/mL))
- Grade code Aeromonas sp (Aeromonas sp.; 0.5%, 30 days incubation): 4 (1001 to 10,000 colonies (thus 10,000 cfu/mL to 100,000 cfu/mL))
- Grade code Aeromonas sp (Aeromonas sp.; 1.25%, 3 days incubation): 4 (1001 to 10,000 colonies (thus 10,000 cfu/mL to 100,000 cfu/mL))
- Grade code Aeromonas sp (Aeromonas sp.; 1.25%, 14 days incubation): 4 (1001 to 10,000 colonies (thus 10,000 cfu/mL to 100,000 cfu/mL))
- Grade code Aeromonas sp (Aeromonas sp.; 1.25%, 30 days incubation): 4 (1001 to 10,000 colonies (thus 10,000 cfu/mL to 100,000 cfu/mL))
- Grade code Aeromonas sp (Aeromonas sp.; 2.5%, 3 days incubation): 4 (1001 to 10,000 colonies (thus 10,000 cfu/mL to 100,000 cfu/mL))
- Grade code Aeromonas sp (Aeromonas sp.; 2.5%, 14 days incubation): 2 (52 to 100 colonies counted (thus 520 to 1000 cfu/mL))
- Grade code Aeromonas sp (Aeromonas sp.; 2.5%, 30 days incubation): 3 (101 to 1000 colonies (thus 1000 to 10,000 cfu/mL))
- Grade code B. subtilis (Bacillus subtilis; 0.5%, 3 days incubation): 4 (1001 to 10,000 colonies (thus 10,000 cfu/mL to 100,000 cfu/mL))
- Grade code B. subtilis (Bacillus subtilis; 0.5%, 14 days incubation): 4 (1001 to 10,000 colonies (thus 10,000 cfu/mL to 100,000 cfu/mL))
- Grade code B. subtilis (Bacillus subtilis; 0.5%, 30 days incubation): 4 (1001 to 10,000 colonies (thus 10,000 cfu/mL to 100,000 cfu/mL))
- Grade code B. subtilis (Bacillus subtilis; 1.25%, 3 days incubation): 4 (1001 to 10,000 colonies (thus 10,000 cfu/mL to 100,000 cfu/mL))
- Grade code B. subtilis (Bacillus subtilis; 1.25%, 14 days incubation): 4 (1001 to 10,000 colonies (thus 10,000 cfu/mL to 100,000 cfu/mL))
- Grade code B. subtilis (Bacillus subtilis; 1.25%, 30 days incubation): 4 (1001 to 10,000 colonies (thus 10,000 cfu/mL to 100,000 cfu/mL))
- Grade code B. subtilis (Bacillus subtilis; 2.5%, 3 days incubation): 4 (1001 to 10,000 colonies (thus 10,000 cfu/mL to 100,000 cfu/mL))
- Grade code B. subtilis (Bacillus subtilis; 2.5%, 14 days incubation): 4 (1001 to 10,000 colonies (thus 10,000 cfu/mL to 100,000 cfu/mL))
- Grade code B. subtilis (Bacillus subtilis; 2.5%, 30 days incubation): 4 (1001 to 10,000 colonies (thus 10,000 cfu/mL to 100,000 cfu/mL))
- Grade code E. coli (Escherichia coli; 0.5%, 3 days incubation): 5 (More than 10,000 colonies estimated (thus >100,000 cfu/mL))
- Grade code E. coli (Escherichia coli; 0.5%, 14 days incubation): 4 (1001 to 10,000 colonies (thus 10,000 cfu/mL to 100,000 cfu/mL))
- Grade code E. coli (Escherichia coli; 0.5%, 30 days incubation): 4 (1001 to 10,000 colonies (thus 10,000 cfu/mL to 100,000 cfu/mL))
- Grade code E. coli (Escherichia coli; 1.25%, 3 days incubation): 4 (1001 to 10,000 colonies (thus 10,000 cfu/mL to 100,000 cfu/mL))
- Grade code E. coli (Escherichia coli; 1.25%, 14 days incubation): 4 (1001 to 10,000 colonies (thus 10,000 cfu/mL to 100,000 cfu/mL))
- Grade code E. coli (Escherichia coli; 1.25%, 30 days incubation): 4 (1001 to 10,000 colonies (thus 10,000 cfu/mL to 100,000 cfu/mL))
- Grade code E. coli (Escherichia coli; 2.5%, 3 days incubation): 4 (1001 to 10,000 colonies (thus 10,000 cfu/mL to 100,000 cfu/mL))
- Grade code E. coli (Escherichia coli; 2.5%, 14 days incubation): 4 (1001 to 10,000 colonies (thus 10,000 cfu/mL to 100,000 cfu/mL))
- Grade code E. coli (Escherichia coli; 2.5%, 30 days incubation): 4 (1001 to 10,000 colonies (thus 10,000 cfu/mL to 100,000 cfu/mL))
- Grade code P. vulqaris (Proteus vulgaris; 0.5%, 3 days incubation): 4 (1001 to 10,000 colonies (thus 10,000 cfu/mL to 100,000 cfu/mL))
- Grade code P. vulqaris (Proteus vulgaris; 0.5%, 13 days incubation): 4 (1001 to 10,000 colonies (thus 10,000 cfu/mL to 100,000 cfu/mL))
- Grade code P. vulqaris (Proteus vulgaris; 0.5%, 30 days incubation): 4 (1001 to 10,000 colonies (thus 10,000 cfu/mL to 100,000 cfu/mL))
- Grade code P. vulqaris (Proteus vulgaris; 1.25%, 3 days incubation): 3 (101 to 1000 colonies (thus 1000 to 10,000 cfu/mL))
- Grade code P. vulqaris (Proteus vulgaris; 1.25%, 13 days incubation): 2 (52 to 100 colonies counted (thus 520 to 1000 cfu/mL))
- Grade code P. vulqaris (Proteus vulgaris; 1.25%, 30 days incubation): 0 (No growth detected or <1 colony (thus <10 cfu/mL))
- Grade code P. vulqaris (Proteus vulgaris; 2.5%, 3 days incubation): 4 (1001 to 10,000 colonies (thus 10,000 cfu/mL to 100,000 cfu/mL))
- Grade code P. vulqaris (Proteus vulgaris; 2.5%, 13 days incubation): 1 (1 to 51 colonies counted (thus 10 to 510 cfu/mL))
- Grade code P. vulqaris (Proteus vulgaris; 2.5%, 30 days incubation): 0 (No growth detected or <1 colony (thus <10 cfu/mL))
- Grade code P. aeruginosa (Pseudomonas aeruginosa; 0.5%, 3 days incubation): 4 (1001 to 10,000 colonies (thus 10,000 cfu/mL to 100,000 cfu/mL))
- Grade code P. aeruginosa (Pseudomonas aeruginosa; 0.5%, 13 days incubation): 4 (1001 to 10,000 colonies (thus 10,000 cfu/mL to 100,000 cfu/mL))
- Grade code P. aeruginosa (Pseudomonas aeruginosa; 0.5%, 30 days incubation): 4 (1001 to 10,000 colonies (thus 10,000 cfu/mL to 100,000 cfu/mL))
- Grade code P. aeruginosa (Pseudomonas aeruginosa; 1.25%, 3 days incubation): 4 (1001 to 10,000 colonies (thus 10,000 cfu/mL to 100,000 cfu/mL))
- Grade code P. aeruginosa (Pseudomonas aeruginosa; 1.25%, 13 days incubation): 4 (1001 to 10,000 colonies (thus 10,000 cfu/mL to 100,000 cfu/mL))
- Grade code P. aeruginosa (Pseudomonas aeruginosa; 1.25%, 30 days incubation): 4 (1001 to 10,000 colonies (thus 10,000 cfu/mL to 100,000 cfu/mL))
- Grade code P. aeruginosa (Pseudomonas aeruginosa; 2.5%, 3 days incubation): 4 (1001 to 10,000 colonies (thus 10,000 cfu/mL to 100,000 cfu/mL))
- Grade code P. aeruginosa (Pseudomonas aeruginosa; 2.5%, 13 days incubation): 3 (101 to 1000 colonies (thus 1000 to 10,000 cfu/mL))
- Grade code P. aeruginosa (Pseudomonas aeruginosa; 2.5%, 30 days incubation): 4 (1001 to 10,000 colonies (thus 10,000 cfu/mL to 100,000 cfu/mL))
- Grade code S. aureus (Staphylococcus aureus; 0.5%, 3 days incubation): 4 (1001 to 10,000 colonies (thus 10,000 cfu/mL to 100,000 cfu/mL))
- Grade code S. aureus (Staphylococcus aureus; 0.5%, 14 days incubation): 4 (1001 to 10,000 colonies (thus 10,000 cfu/mL to 100,000 cfu/mL))
- Grade code S. aureus (Staphylococcus aureus; 0.5%, 30 days incubation): 4 (1001 to 10,000 colonies (thus 10,000 cfu/mL to 100,000 cfu/mL))
- Grade code S. aureus (Staphylococcus aureus; 1.25%, 3 days incubation): 4 (1001 to 10,000 colonies (thus 10,000 cfu/mL to 100,000 cfu/mL))
- Grade code S. aureus (Staphylococcus aureus; 1.25%, 14 days incubation): 4 (1001 to 10,000 colonies (thus 10,000 cfu/mL to 100,000 cfu/mL))
- Grade code S. aureus (Staphylococcus aureus; 1.25%, 30 days incubation): 4 (1001 to 10,000 colonies (thus 10,000 cfu/mL to 100,000 cfu/mL))
- Grade code S. aureus (Staphylococcus aureus; 2.5%, 3 days incubation): 2 (52 to 100 colonies counted (thus 520 to 1000 cfu/mL))
- Grade code S. aureus (Staphylococcus aureus; 2.5%, 14 days incubation): 1 (1 to 51 colonies counted (thus 10 to 510 cfu/mL))
- Grade code S. aureus (Staphylococcus aureus; 2.5%, 30 days incubation): 1 (1 to 51 colonies counted (thus 10 to 510 cfu/mL))
- Grade code S. epidermidis ([1]; 0.5%, 3 days incubation): 4 (1001 to 10,000 colonies (thus 10,000 cfu/mL to 100,000 cfu/mL))
- Grade code S. epidermidis ([1]; 0.5%, 13 days incubation): 4 (1001 to 10,000 colonies (thus 10,000 cfu/mL to 100,000 cfu/mL))
- Grade code S. epidermidis ([1]; 0.5%, 30 days incubation): 4 (1001 to 10,000 colonies (thus 10,000 cfu/mL to 100,000 cfu/mL))
- Grade code S. epidermidis ([1]; 1.25%, 3 days incubation): 2 (52 to 100 colonies counted (thus 520 to 1000 cfu/mL))
- Grade code S. epidermidis ([1]; 1.25%, 13 days incubation): 3 (101 to 1000 colonies (thus 1000 to 10,000 cfu/mL))
- Grade code S. epidermidis ([1]; 1.25%, 30 days incubation): 4 (1001 to 10,000 colonies (thus 10,000 cfu/mL to 100,000 cfu/mL))
- Grade code S. epidermidis ([1]; 2.5%, 3 days incubation): 2 (52 to 100 colonies counted (thus 520 to 1000 cfu/mL))
- Grade code S. epidermidis ([1]; 2.5%, 13 days incubation): 2 (52 to 100 colonies counted (thus 520 to 1000 cfu/mL))
- Grade code S. epidermidis ([1]; 2.5%, 30 days incubation): 2 (52 to 100 colonies counted (thus 520 to 1000 cfu/mL))
- Grade code S. mutans (Streptococcus mutans; 0.5%, 3 days incubation): 4 (1001 to 10,000 colonies (thus 10,000 cfu/mL to 100,000 cfu/mL))
- Grade code S. mutans (Streptococcus mutans; 0.5%, 13 days incubation): 4 (1001 to 10,000 colonies (thus 10,000 cfu/mL to 100,000 cfu/mL))
- Grade code S. mutans (Streptococcus mutans; 0.5%, 30 days incubation): 4 (1001 to 10,000 colonies (thus 10,000 cfu/mL to 100,000 cfu/mL))
- Grade code S. mutans (Streptococcus mutans; 1.25%, 3 days incubation): 4 (1001 to 10,000 colonies (thus 10,000 cfu/mL to 100,000 cfu/mL))
- Grade code S. mutans (Streptococcus mutans; 1.25%, 13 days incubation): 4 (1001 to 10,000 colonies (thus 10,000 cfu/mL to 100,000 cfu/mL))
- Grade code S. mutans (Streptococcus mutans; 1.25%, 30 days incubation): 4 (1001 to 10,000 colonies (thus 10,000 cfu/mL to 100,000 cfu/mL))
- Grade code S. mutans (Streptococcus mutans; 2.5%, 3 days incubation): 3 (101 to 1000 colonies (thus 1000 to 10,000 cfu/mL))
- Grade code S. mutans (Streptococcus mutans; 2.5%, 13 days incubation): 1 (1 to 51 colonies counted (thus 10 to 510 cfu/mL))
- Grade code S. mutans (Streptococcus mutans; 2.5%, 30 days incubation): 0 (No growth detected or <1 colony (thus <10 cfu/mL))

From patent US20110028566A1, “COMPOSITIONS AND PRODUCTS CONTAINING CYCLOALIPHATIC DIOL ANTIMICROBIAL AGENTS AND METHODS OF USING THE COMPOSITIONS AND PRODUCTS” (EASTMAN CHEMICAL COMPANY, priority 2009, published 2011)
